US7473688B2, “Indolobenzazepine HCV NS5B inhibitors” (Bristol-Myers Squibb Company, priority 2005, dated 2009)
Where two headings read alike, the source gives them in different places.

Columns and labels:
[1] = biological target: T1, HCV NS5B (Hepatitis C virus genotype 1b, UniProt Q9WMX2); assay: HCV NS5B RdRp enzyme assay (preincubation protocol); format: biochemical; details: read-out: IC50*
T1 construct: The protein was expressed with an 18 amino acid C-terminal truncation to enhance the solubility; made in house; host or cells: E. coli BL21 (DE3), pET21a
Protocol: HCV NS5B RdRp cloning, expression, and purification. The cDNA encoding the NS5B protein of HCV, genotype 1b, was cloned into the pET21a expression vector. The protein was expressed with an 18 amino acid C-terminal truncation to enhance the solubility. The E. coli competent cell line BL21 (DE3) was used for expression of the protein. Cultures were grown at 37° C. for ˜4 hours until the cultures reached an optical density of 2.0 at 600 nm. The cultures were cooled to 20° C. and induced with 1 mM IPTG. Fresh ampicillin was added to a final concentration of 50 μg/ml and the cells were grown overnight at 20° C.
Cell pellets (3L) were lysed for purification to yield 15-24 mgs of purified NS5B. The lysis buffer consisted of 20 mM Tris-HCl, pH 7.4, 500 mM NaCl, 0.5% triton X-100, 1 mM DTT, 1 mM EDTA, 20% glycerol, 0.5 mg/ml lysozyme, 10 mM MgCl2, 15 ug/ml deoxyribonuclease I, and Complete TM protease inhibitor tablets (Roche). After addition of the lysis buffer, frozen cell pellets were resuspended using a tissue homogenizer. To reduce the viscosity of the sample, aliquots of the lysate were sonicated on ice using a microtip attached to a Branson sonicator. The sonicated lysate was centrifuged at 100,000×g for 1 hr at 4° C. and filtered through a 0.2 μm filter unit (Corning).
The protein was purified using three sequential chromatography steps: Heparin sepharose CL-6B, polyU sepharose 4B, and Hitrap SP sepharose (Pharmacia). The chromatography buffers were identical to the lysis buffer but contained no lysozyme, deoxyribonuclease I, MgCl2 or protease inhibitor and the NaCl concentration of the buffer was adjusted according to the requirements for charging the protein onto the column. Each column was eluted with a NaCl gradient which varied in length from 5-50 column volumes depending on the column type. After the final chromatography step, the resulting purity of the enzyme is >90% based on SDS-PAGE analysis. The enzyme was aliquoted and stored at −80° C.
Standard HCV NS5B RdRp enzyme assay. HCV RdRp genotype 1b assays were run in a final volume of 60 μl in 96 well plates (Costar 3912). The assay buffer is composed of 20 mM Hepes, pH 7.5, 2.5 mM KCl, 2.5 mM MgCl2, 1 mM DTT, 1.6 U RNAse inhibitor (Promega N2515), 0.1 mg/ml BSA (Promega R3961), and 2% glycerol. All compounds were serially diluted (3-fold) in DMSO and diluted further in water such that the final concentration of DMSO in the assay was 2%. HCV RdRp genotype 1b enzyme was used at a final concentration of 28 nM. A polyA template was used at 6 nM, and a biotinylated oligo-dT12 primer was used at 180 nM final concentration. Template was obtained commercially (Amersham 27-4110). Biotinylated primer was prepared by Sigma Genosys. 3H-UTP was used at 0.6 μCi (0.29 μM total UTP). Reactions were initiated by the addition of enzyme, incubated at 30° C. for 60 min, and stopped by adding […] of 50 mM EDTA containing SPA beads (4 μg/μl, Amersham RPNQ 0007). Plates were read on a Packard Top Count NXT after >1 hr incubation at room temperature.
Modified HCV NS5B RdRp enzyme assay. A modified enzyme assay was performed essentially as described for the standard enzyme assay except for the following: The biotinylated oligo dT12 primer was precaptured on streptavidin-coated SPA beads by mixing primer and beads in assay buffer and incubating at room temperature for one hour. Unbound primer was removed after centrifugation. The primer-bound beads were resuspended in 20 mM Hepes buffer, pH 7.5 and used in the assay at final concentrations of […] primer and 0.67 μg/μl beads. Order of addition in the assay: Enzyme (14 nM) was added to diluted compound followed by the addition of a mixture of template (0.2 nM), 3H-UTP (0.6 μCi, 0.29 μM), and primer-bound beads, to initiate the reaction; concentrations given are final. Reactions were allowed to proceed for 4 hours at 30° C.
IC50 values for compounds were determined using seven different [I]. […]

[2] = tested on: HCV replicon; assay: HCV replicon FRET assay; format: cell-based; details: Hepatitis C virus, FRET assay, read-out: EC50*
Source text: FRET Assay Preparation. To perform the HCV FRET screening assay, 96-well cell culture plates were used. The FRET peptide (Anaspec, Inc.) (Taliani et al., Anal. Biochem. 1996, 240, 60-67) contains a fluorescence donor, EDANS, near one end of the peptide and an acceptor, DABCYL, near the other end. The fluorescence of the peptide is quenched by […] resonance energy transfer (RET) between the donor and the acceptor, but as the NS3 protease cleaves the peptide the products are released from RET quenching and the fluorescence of the donor becomes apparent. The assay reagent was made as follows: 5× cell Luciferase cell culture lysis reagent from Promega (#E153A) diluted to 1× with dH2O, NaCl added to 150 mM final, the FRET peptide diluted to 20 uM final from a 2 mM stock.
To prepare plates, HCV replicon cells, with or without a Renilla luciferase reporter gene, were trypsinized and placed into each well of a 96-well plate with titrated test compounds added in columns 3 through 12; columns 1 and 2 contained a control compound (HCV protease inhibitor), and the bottom row contained cells without compound. The plates were then placed in a CO2 incubator at 37° C.
Assays. Subsequent to addition of the test compounds described above (FRET Assay Preparation), at various times the plate was removed and Alamar blue solution (Trek Diagnostics, #00-100) was added per well as a measure of cellular toxicity. After reading in a Cytoflour 4000 instrument (PE Biosystems), plates were rinsed with PBS and then used for FRET assay by the addition of 30 ul of the FRET peptide assay reagent described above (FRET Assay Preparation) per well. The plate was then placed into the Cytoflour 4000 instrument which had been set to 340 excite/490 emission, automatic mode for 20 cycles and the plate read in a kinetic mode. Typically, the signal to noise using an endpoint analysis after the reads was at least three-fold. Alternatively, after Alamar blue reading, plates were rinsed with PBS, 50 ul of DMEM (high glucose) without phenol red was added and plates were then used for luciferase assay using the Promega Dual-Glo Luciferase Assay System.
Compound analysis was determined by quantification of the relative HCV replicon inhibition and the relative cytotoxicity values. To calculate cytoxicity values, the average Alamar Blue fluorescence signals from the control wells were set as 100% non-toxic. The individual signals in each of the compound test wells were then divided by the average control signal and multiplied by 100% to determine […]. To calculate the HCV replicon inhibition values, an average background value was obtained from the two wells containing the highest amount of HCV protease inhibitor at the end of the assay period. These numbers were similar to those obtained from naïve Huh-7 cells.
The background numbers were then subtracted from the average signal obtained from the control wells and this number was used as 100% activity. The individual signals in each of the compound test wells were then divided by the averaged control values after background subtraction and multiplied by 100% to determine percent activity. EC50 values for a protease inhibitor titration were calculated as the concentration which caused a 50% reduction in FRET or luciferase activity. The two numbers generated for the compound plate, percent cytoxicity and percent activity were used to determine compounds of interest for further analysis.

T1 sequence (Q9WMX2 2420-2992): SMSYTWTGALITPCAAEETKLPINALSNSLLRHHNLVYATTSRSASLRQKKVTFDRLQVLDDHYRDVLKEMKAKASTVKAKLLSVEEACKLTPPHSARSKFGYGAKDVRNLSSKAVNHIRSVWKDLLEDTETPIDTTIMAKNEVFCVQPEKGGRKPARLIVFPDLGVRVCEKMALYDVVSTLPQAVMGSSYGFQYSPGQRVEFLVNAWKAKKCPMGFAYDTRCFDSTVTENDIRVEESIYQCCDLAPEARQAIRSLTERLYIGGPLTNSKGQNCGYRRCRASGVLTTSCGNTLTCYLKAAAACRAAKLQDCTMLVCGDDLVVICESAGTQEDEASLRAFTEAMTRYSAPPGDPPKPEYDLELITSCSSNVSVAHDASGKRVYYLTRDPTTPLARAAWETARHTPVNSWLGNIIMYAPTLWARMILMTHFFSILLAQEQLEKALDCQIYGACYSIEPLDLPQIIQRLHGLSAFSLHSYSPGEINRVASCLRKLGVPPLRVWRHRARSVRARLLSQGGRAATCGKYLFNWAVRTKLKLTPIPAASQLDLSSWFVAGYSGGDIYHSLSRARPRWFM

Row | SMILES | IC50 ([1]; Table 1a) [µM] | EC50 ([2]; Table 1) [µM] | also measured
1 | COC(=O)c1ccc2c(C3CCCCC3)c3n(c2c1)CC(C(=O)N1CCOC(CO)C1)=Cc1c(OC)cccc1-3 (stereo not drawn) |  |  | IC50 ([1]; Table 1b): > 12.5 µM; EC50 ([2]; Table 1b): > 10 µM
2 | COc1ccc2c(c1)CC(NC(=O)N1CCOC(CN(C)C)C1)Cn1c-2c(C2CCCCC2)c2ccc(C(=O)NS(=O)(=O)N(C)C)cc21 (stereo not drawn) | 0.01 to 1 |  | EC50 ([2]; Table 1a): 0.03 to 1 µM
3 | COC(=O)c1ccc2c(C3CCCCC3)c3n(c2c1)CC(C(=O)N1CCC(NC(C)=O)CC1)=Cc1ccccc1-3 |  | 1 to 10 | 
4 | COC(=O)c1ccc2c(C3CCCCC3)c3n(c2c1)CC(C(=O)N1CCC(N2CCOCC2)CC1)=Cc1ccc(Cl)cc1-3 |  | 1 to 10 | 
5 | COC(=O)c1ccc2c(C3CCCCC3)c3n(c2c1)CC(C(=O)N1CC[C@@H](F)C1)=Cc1ccccc1-3 |  | > 0.37 | 
6 | COC(=O)c1ccc2c(C3CCCCC3)c3n(c2c1)C/C(=N/O)Cc1ccccc1-3 |  | > 10 | 
7 | COC(=O)c1ccc2c(C3CCCCC3)c3n(c2c1)CC(C(=O)Nc1nccs1)=Cc1ccccc1-3 |  | 1 to 10 | 
8 | COC(=O)c1ccc2c(C3CCCCC3)c3n(c2c1)CC(C(=O)N1CCC(N2C(=O)Cc4ccccc42)CC1)=Cc1ccccc1-3 |  | 1 to 10 | 
9 | COC(=O)c1ccc2c(C3CCCCC3)c3n(c2c1)CC(C(=O)N1CCOC(CO)C1)=Cc1cc(F)ccc1-3 (stereo not drawn) |  |  | IC50 ([1]; Table 1b): 0.02 to 1 µM
10 | COc1ccc2c(c1)CC(N(C)C(=O)N1C[C@@H](C)O[C@@H](C)C1)Cn1c-2c(C2CCCCC2)c2ccc(C(=O)O)cc21 (stereo partly drawn) | 0.01 to 1 |  | 
11 | COc1ccc2c(c1)C=C(C(=O)N(C)CC(=O)N1CCOCC1)Cn1c-2c(C2CCCCC2)c2ccc(C(=O)NS(=O)(=O)N(C)C)cc21 | 0.01 to 1 |  | 
12 | COc1ccc2c(c1)CC(N(C)C(=O)C1CCOCC1)Cn1c-2c(C2CCCCC2)c2ccc(C(=O)NS(=O)(=O)N(C)C)cc21 (stereo not drawn) | 0.01 to 1 |  | 
13 | COc1ccc2c(c1)C=C(C(=O)N1C[C@@H](C)N(C)[C@@H](C)C1)Cn1c-2c(C2CCCCC2)c2ccc(C(=O)NS(=O)(=O)N(C)C)cc21 | 0.01 to 1 |  | 
14 | COc1ccc2c(c1)CC(C(=O)N(C)CC1CCCO1)Cn1c-2c(C2CCCCC2)c2ccc(C(=O)NS(=O)(=O)N(C)C)cc21 (stereo not drawn) | 0.01 to 1 |  | 
15 | CNC(=O)CNC(=O)C1=Cc2cc(OC)ccc2-c2c(C3CCCCC3)c3ccc(C(=O)O)cc3n2C1 | 0.01 to 1 |  | 
16 | COc1ccc2c(c1)C=C(C(=O)N1CCC(C(=O)N(C)C)CC1)Cn1c-2c(C2CCCCC2)c2ccc(C(=O)NS(=O)(=O)N3CCN(C)CC3)cc21 | 0.01 to 1 |  | 
